The test relates to influenza A strains. Nature of the test: microbe, parasite or virus in culture. Type of test: cell-based. The conditions noted are these: H3N2, MDCK, read-out: Cell Protection Assay EC50 ± SD, A/Texas/12/2007, H3N2, amantadine resistance (phenotypic), oseltamivir carboxylate resistance NA 119V.

Each structure is given as a SMILES string.

Regarding `O=C(O)[C@H]1[C@H]2CC[C@H](CC2)[C@@H]1Nc1nc(-c2c[nH]c3ncc(F)cc23)ncc1F` [Compound (1)], the EC50 was 0.65 ± 0.22 nM.
